For series [1], the system named is AR. Briefly: Androgen-responsive luciferase reporter assay in GT1-7 cells. As to conditions: for inhibition of AR transcriptional activity (luciferase): GT1-7 cells, treated overnight, FIG. 2A; for Fold Difference: GT1-7 luciferase. The format is cell-based, murine. The method, then: Luciferase Reporter Assay. […] The following day, cells and drugs were distributed to 96-well plates. 24 hours later, luciferase activity was assessed by a dual luciferase assay kit (Promega) on the Tecan plate reader. Samples were run in quadruplicates and a Student's t test was performed to determine significance, where p<0.05 was considered significant.
In order to identify potential cell-type selective AR modulators, the FRET-based assay of AR conformation change was utilized. AR signaling is a complex process involving many steps in addition to ligand binding. One crucial step is the ligand-induced conformational change of AR, which brings the carboxy (C)- and amino (N)-termini of the receptor together. Full length AR with cyan fluorescent protein (CFP) or yellow fluorescent protein (YFP) fused to either end (CARY) produces a FRET signal upon AR conformation change (FIG. 1A). This produces an accurate and quantifiable read-out of AR activity. […] Cells were plated in 96 wells and treated with library compounds 24 hours prior to accessing conformational changes by FRET. […] Candidate hits were then further evaluated by dose response. […] In addition to FRET, AR transcriptional activity was also assessed in several cell lines by transfecting cells with a luciferase reporter driven by the human PSA promoter.
(A reporter such as luciferase makes a cellular process visible.)

Series [2] relates to AR. Briefly: Androgen-responsive luciferase reporter assay in C2C12 cells. The format is cell-based, murine. As to conditions: treated overnight, FIG. 2A. From the text:
Luciferase Reporter Assay. Cells were transfected using Lipofectamine Plus (Invitrogen) with a normalization plasmid (pRL-SV40, Promega) and an androgen responsive plasmid (MMTV-luciferase or PSA-luciferase) as described in Jones et al, ACS Chem Biol, 3(7):412-8 (2008), and, where indicated, with an shRNA plasmid targeting FOXM1 (adapted for mouse FOXM1 sequence targeting) a scrambled control shRNA plasmid, or ARQ24 or ARQ65 plasmids. Christensen et al, PLoS One, 8(1):e54556 (2013). The following day, cells and drugs were distributed to 96-well plates. 24 hours later, luciferase activity was assessed by a dual luciferase assay kit (Promega) on the Tecan plate reader. Samples were run in quadruplicates and a Student's t test was performed to determine significance, where p<0.05 was considered significant.
In order to identify potential cell-type selective AR modulators, the FRET-based assay of AR conformation change was utilized. AR signaling is a complex process involving many steps in addition to ligand binding. One crucial step is the ligand-induced conformational change of AR, which brings the carboxy (C)- and amino (N)-termini of the receptor together. Full length AR with cyan fluorescent protein (CFP) or yellow fluorescent protein (YFP) fused to either end (CARY) produces a FRET signal upon AR conformation change (FIG. 1A). This produces an accurate and quantifiable read-out of AR activity. Jones et al, ACS Chem Biol, 3(7):412-8 (2008). Because the interest was in the potential of neuron selective AR inhibitors for treatment of SBMA, the initial screen was carried out in CARY-transfected GT1-7 cells, which are a mouse model of hypothalamic neurons. Liposits et al, Endocrinology, 129(3):1575-83 (1991). Cells were plated in 96 wells and treated with library compounds 24 hours prior to accessing conformational changes by FRET. […] Candidate hits were then further evaluated by dose response. […] In addition to FRET, AR transcriptional activity was also assessed in several cell lines by transfecting cells with a luciferase reporter driven by the human PSA promoter. […]

Series [3] concerns AR. As to the kind of experiment: Immunohistochemistry of AR in spinal cord and muscle tissue. The format is in vivo, rat. To be noted: rats, 100 mg/kg per day, four weeks.
The nature of series [4]: Pilot pharmacokinetic study, plasma and spinal fluid by LC-MS/MS. The format is in vivo, rat. The protocol:
Animals and Drugs. This study was carried out in strict accordance with the recommendations in the Guide for the Care and Use of Laboratory Animals of the National Institutes of Health. All experiments were performed under the IUCAC approval of City of Hope. Animals were purchased from Jackson Laboratory (Bar Harbor, Main). For the pilot pharmacokinetic experiment, nine male Sprague Dawley rats (n=3) were administered 1, 10, or 100 mg/kg intraperitoneal injections thrice per week for four weeks. One hour following the final dose, blood and spinal fluid were collected and analyzed by mass spectrometry. For the efficacy experiment, rats were divided into 3 groups (n=7) as follows: intact, castrated, and thiostrepton. Thiostrepton was dissolved in 20% DMSO and 80% PEG400 (Sigma Aldrich) and administered at a concentration of 50 mg/kg per day via an IP osmotic pump implant (Alzet). Following a treatment period of 7 days, rats were euthanized and organs harvested, weighed and processed for quantitative RT-PCR.
LC-MS/MS methods. Dried samples were resuspended in tetrahydrofuran spiked with 5 pg/μl reserpine, which was used as an instrument response control. Resuspended samples were separated with an Agilent 1290 UHPLC system (Agilent Technologies, Santa Clara, Calif.) and a Waters Acquity CSH C18 column (Waters, Millford, Mass.) using a linear gradient from 95% buffer A (0.1% formic acid in 60% water/40% acetonitrile) to 100% buffer B (0.1% formic acid in 90% isopropanol/10% acetonitrile) over 2.5 minutes at 380 μL/minute. The UHPLC column eluent was sprayed into an Agilent 6490 triple quadrupole mass spectrometer equipped with a JetStream source (Agilent Technologies). Thiostrepton was detected by monitoring fragments from the doubly charged ion (m/z 832.9) at m/z 1247.4 and 1230.3. Data was analyzed using Agilent MassHunter quantitative analysis software.
A pilot pharmacokinetic study in rats was conducted to achieve desired dosing and to determine if thiostrepton crosses the blood brain barrier. Rats (n=3/group) received low (1 mg/kg), medium (10 mg/kg), or high (100 mg/kg) doses of thiostepton by intraperitoneal (IP) injection, three times a week for four weeks. One hour after the final dose, animals were euthanized and blood and spinal fluid was collected and analyzed by LC-MS/MS (FIG. 5A).

The structures appear in SMILES notation. “Also recorded” adds a separate entry of the source.

For the compound `C=C(NC(=O)C(=C)NC(=O)c1csc(C2=N[C@@H]3c4csc(n4)[C@H]4NC(=O)c5csc(n5)[C@H]([C@](C)(O)[C@@H](C)O)NC(=O)[C@H]5CSC(=N5)/C(=C/C)NC(=O)[C@H]([C@@H](C)O)NC(=O)c5csc(n5)[C@]3(CC2)NC(=O)[C@H](C)NC(=O)C(=C)NC(=O)C(=C)NC(=O)[C@H](C(C)C)N[C@@H]2C=Cc3c([C@H](C)O)cc(nc3[C@H]2O)C(=O)O[C@@H]4C)n1)C(N)=O` [NSC285116, siomycin A], the “inhibition of AR transcriptional activity (luciferase)” value with AR [1] is “selectively inhibit AR activity”; in the series on AR [2], “not C2C12 cells”.
Consider `C=C(NC(=O)C(=C)NC(=O)c1csc(C2=N[C@@H]3c4csc(n4)[C@H]4NC(=O)c5csc(n5)[C@H]([C@](C)(O)[C@@H](C)O)NC(=O)[C@H]5CSC(=N5)/C(=C/C)NC(=O)[C@H]([C@@H](C)O)NC(=O)c5csc(n5)[C@]3(CC2)NC(=O)[C@H](C)NC(=O)C(=C)NC(=O)[C@H](C)NC(=O)[C@H]([C@@H](C)CC)N[C@@H]2C=Cc3c([C@H](C)O)cc(nc3[C@H]2O)C(=O)O[C@@H]4C)n1)C(N)=O` [thiostrepton], for which the “Fold Difference” value turned out to be 2.04 in the series with AR [1] (DHT - 100 nM thiostrepton, Control shRNA); 1.62 in the series on AR [1] (DHT - 100 nM thiostrepton, FOXM1 shRNA); 1.54 in the series on AR [1] (DHT-10 nM thiostrepton, Control shRNA); 1.34 in the series with AR [1] (DHT-10 nM thiostrepton, FOXM1 shRNA). Moreover, the “potency of thiostrepton on AR activity after decreasing FOXM1 expression” value in the series on AR [1] (FOXM1 shRNA vs control, GT1-7, FIG. 3B) is on record as “diminished the potency”. The “inhibition of AR transcriptional activity (luciferase)” value in the series on AR [1] is “most potent; also recorded: nanomolar potency; also recorded: selectively inhibit AR activity”; in the series with AR [2], “not C2C12 cells”. Moreover, the “AR expression in striated muscle tissue nuclei (IHC)” value with AR [3] is given as “not affected”. For the same compound, the “AR levels in spinal cord neurons (IHC)” value in the series on AR [3] is “not affected”. Moreover, the plasma levels entry in series [4] (rats, 1, 10, 100 mg/kg IP three times a week for four weeks, one hour after final dose) is given as “dose-dependent increase”. In addition, the “spinal fluid level relative to plasma” value in series [4] (rats, IP, one hour after final dose) was “much lower levels than the plasma”. The “spinal fluid concentration relative to IC50 in luciferase assay” value in series [4] (rats, high dose) was “above its IC50”. Moreover, the “levels of drug in the spinal fluid” value in series [4] (rats, high dose (100 mg/kg) IP, one hour after final dose) is “measurable levels”.

For the origin of these results see patent US11167007B2, “FOXM1 modulators and uses thereof” (City of Hope, priority 2016, dated 2021).
